# Assays:
# T cell lymphocyte = test: T-cell proliferation assay in response to ConA mitogen, blood of dogs fed glutamine supplemented diet; type: in vivo, Beagle dogs; conditions: for T cell proliferation (log10 cpm): ConA mitogen, data collapsed across ConA doses
# Description: In a further experiment, the efficacy of glutamine as a immune-modulator was examined. 20 Beagle dogs were randomly allocated into 4 groups receiving either basic diet or basic diet supplemented with 1%, 2%, or 4% glutamine. Blood samples were drawn in heparinized tubes from animals 2 hrs after their last feeding on day 1 and 16. Samples were prepared for immune measurement. (T cell proliferation assay).
# T-cell proliferation assay. Peripheral blood leukocytes (PBL) in each blood sample were counted using Nova Celltrak II (Beckman Coulter Corp., Fla.). Blood was diluted (1:20) with supplemented media. Diluted blood was plated, in triplicate, in 96 well cell culture plates with the following mitogens diluted in supplemented media: Concanavalin A (0.5 μg/ml, 2.5 μg/ml. Plates were incubated in a humidified incubator containing 7% CO2 at 37° C. for 72 hrs. Cellular DNA was […]. Cellular DNA was harvested on glass fiber paper using a cell harvester (Skatron Instruments Inc., Va.) and suspended with 1.5 ml scintillation cocktail. [^3H]thymidine uptake was quantified as counts per minutes (CPM) using TriCarb 2100TR Liquid Scintillation Analyzer (Packard BioScience Company, Ill.). Counts were normalized to CPM/10,000 cells to account for variation in PBL concentrations.
# Concanvalin A (Con A) is a polyclonal T-cell mitogen. […] Thus, the data were collapsed across the different doses of Con A to show the proliferative response of lymphocytes dependent on percentage of glutamine supplemented in the diet.
# [1] = Postprandial plasma glutamine dose response study in dogs; type: in vivo
# Description: In one experiment, a source of glutamine was tested to see if it was bioavailable and able to deliver adequate glutamine to the intestinal cells. The source of glutamine was a wheat hydrolysate with an enrichment of 30% glutamine. A dose response study was carried out in 6 dogs to see if increasing levels of the glutamine source (0, 0.5, 1.0, 2% glutamine content) was detected in the plasma after feeding the diet.
structure (smiles),measurement,setting,value
NC(=O)CC[C@H](N)C(=O)O [glutamine],"Lymphocyte proliferation, result in words","T cell lymphocyte; 1% glutamine in diet, versus control group P<0.05",maximum lymphocyte proliferation
same,T cell proliferation (log10 cpm),T cell lymphocyte; 1% supplemental glutamine in diet,5 log10 cpm
same,"T-lymphocytes proliferation, result in words",T cell lymphocyte; 1-2% glutamine in diet,enhances overall T-lymphocytes proliferation
same,T cell proliferation (log10 cpm),T cell lymphocyte; 2% supplemental glutamine in diet,4.8 log10 cpm
same,"T-lymphocytes proliferation, result in words",T cell lymphocyte; 4% glutamine in diet,not additionally beneficial
same,T cell proliferation (log10 cpm),T cell lymphocyte; 4% supplemental glutamine in diet,4.5 log10 cpm
same,% Change in plasma glutamine from control,[1]; 0.5% supplemented glutamine in food,3%
same,% Change in plasma glutamine from control,[1]; 1.0% supplemented glutamine in food,10%
same,% Change in plasma glutamine from control,[1]; 2.0% supplemented glutamine in food,15%

# Reference: patent US7754677B2, “Composition and method for reducing diarrhea in a mammal” (Hill's Pet Nutrition, Inc., priority 2003, dated 2010)
